Measurements published in patent publication US20060189682A1, “Water soluble prodrugs of COX-2 inhibitors” (priority 2005, published 2006).
Like-named read-outs stand apart in the source and are kept apart here.

Assays:
[1] = Solubility in deionized water @ 25° C.; assay type: physicochemical
Method: (§1) The physiochemical properties of Examples 1-6 and their ability to behave as pro-drugs and release in vivo the parent drug (the desired COX-2 inhibitor 5(S)-ethyl-3-isopropoxy-4-(4-methanesulfonylphenyl)-5-methyl-5H-furan-2-one) were examined. […] To ascertain the rates of conversion of the pro-drugs in vivo, the compounds were dosed as a saline solution of the salt form (except for 1, which was dosed in a PEG-400 solution) in Sprague-Dawley rats at 2 mg/kg intravenously. Plasma levels were measured for levels of the respective pro-drug and the desired COX-2 inhibitor at 5, 15, 30, and 60 min time points. The plasma levels measured at 30 minutes are given below (Table 1).

[2] = Plasma levels of pro-drug and desired COX-2 inhibitor after i.v. dosing in Sprague-Dawley rats; assay type: in vivo; conditions: for Levels of pro-drug in vivo / In vivo conversion to parent drug in plasma / Pharmacokinetic characteristics: 2 mg/kg i.v.; for Levels of pro-drug in vivo: rat model; for In vivo conversion to parent drug in plasma / Pharmacokinetic characteristics / concentration at 30 min: rat; for In vivo conversion to parent drug in plasma: plasma at 30 min; for concentration at 30 min: iv, plasma, 2 mg/kg i.v. dose of pro-drug, Sprague-Dawley rats, value @ 30 min, read-out: Levels of Pro-Drug @ 0.5 hr
Method: as §1

[3] = Stability of 4 mg/mL solution in water, judged @ 24 hr by LC-MS/HPLC; assay type: physicochemical; conditions: after 24 hr in water, HPLC analysis
Method: as §1

[4] = background statement; cited from earlier work
[5] = tested on: infarct volume; conditions: MCAO stroke model; cited from earlier work
[6] = deionized water, 25 °C, water, read-out: Solubility
[7] = saline solution of the salt form

**Q.** For `CC[C@]1(C)O/C(=N\OCC(=O)[O-])C(OC(C)C)=C1c1ccc(S(C)(=O)=O)cc1.[Na+]` [Example 6, [[[(5S)-5-ethyl-5-methyl-3-(1-methylethoxy)-4-[4-(methylsulfonyl)phenyl]-2(5H)-furanylidene]amino]oxy]acetic acid sodium salt], which solubility [1, 6] is on record?
**A.** Its solubility is over 10000 µg/mL.

**Q.** What about the solubility ([1]; sodium salt) of the same compound?
**A.** The solubility was 10000 µg/mL.

**Q.** And the “Levels of pro-drug in vivo” value [2]?
**A.** Its value is “dropped rapidly”.

**Q.** And the “In vivo conversion to parent drug in plasma” value [2]?
**A.** The value was “failed to give appreciable amounts of the parent drug”.

**Q.** Which results are given for `CC[C@]1(C)O/C(=N\[C@@H](CO)C(=O)[O-])C(OC(C)C)=C1c1ccc(S(C)(=O)=O)cc1.[K+]` [Example 4, N-[(5S)-5-ethyl-3-isopropoxy-5-methyl-4-[4-(methylsulfonyl)phenyl]furan-2(5H)-ylidene]-L-serine potassium salt]?
**A.** solubility [1, 6]: > 10000 µg/mL; solubility ([1]; potassium salt): >20000 µg/mL; Levels of pro-drug in vivo [2]: dropped rapidly; In vivo conversion to parent drug in plasma [2]: failed to give appreciable amounts of the parent drug

**Q.** What does the source list for `CC[C@]1(C)OC2(OCC(COC(=O)CCC(=O)[O-])O2)C(OC(C)C)=C1c1ccc(S(C)(=O)=O)cc1.[Na+]` (stereo partly drawn) [Example 2, Sodium 4-({(7S)-7-ethyl-9-isopropoxy-7-methyl-8-[4-(methylsulfonyl)phenyl]-1,4,6-trioxaspiro[4.4]non-8-en-2-yl}methoxy)-4-oxobutanoate]?
**A.** solubility [1, 6]: 2000 µg/mL; Pharmacokinetic characteristics [2]: superior pharmacokinetic characteristics; In vivo conversion to parent drug in plasma [2]: converted to yield appreciable levels of the parent drug; concentration at 30 min [2, 7]: < 100 nM

**Q.** Which solubility [1, 6] does the source give for `CC[C@@]1(C)OC2(OC[C@@H]([C@H]3OC(=O)C(O)=C3[O-])O2)C(OC(C)C)=C1c1ccc(S(C)(=O)=O)cc1.[Na+]` (stereo partly drawn) [Example 5] here?
**A.** Its solubility is over 10000 µg/mL.

**Q.** And the solubility ([1]; monosodium salt)?
**A.** The solubility was over 20000 µg/mL.

**Q.** And the “Pharmacokinetic characteristics” value [2]?
**A.** The value was “superior pharmacokinetic characteristics”.

**Q.** What about the “Stability in solution” value [3] of the same compound?
**A.** The value was “rapid decomposition”.

**Q.** What does the source list for `CC[C@]1(C)OC2(OCC(COP(=O)([O-])OCC[N+](C)(C)C)O2)C(OC(C)C)=C1c1ccc(S(C)(=O)=O)cc1` (stereo in doubt) [Example 3, 2-{[({(2R,7S)-7-ethyl-9-isopropoxy-7-methyl-8-[4-(methylsulfonyl)phenyl]-1,4,6-trioxaspiro[4.4]non-8-en-2-yl}methoxy)(hydroxy)phosphoryl]oxy}-N,N,N-trimethylethanaminium]?
**A.** solubility [1]: >20000 µg/mL; solubility [1, 6]: > 10000 µg/mL; Pharmacokinetic characteristics [2]: superior pharmacokinetic characteristics; concentration at 30 min [2, 7]: 200 nM

**Q.** What does the source list for `CC[C@]1(C)OC(=O)C(OC(C)C)=C1c1ccc(S(C)(=O)=O)cc1` [parent drug, 5(S)-ethyl-3-isopropoxy-4-(4-methanesulfonylphenyl)-5-methyl-5H-furan-2-one]?
**A.** Water solubility [4]: poor water solubility; Infarct volume [5]: reduction in infarct volume

**Q.** For `CC[C@]1(C)OC2(OCC(CO)O2)C(OC(C)C)=C1c1ccc(S(C)(=O)=O)cc1` (stereo partly drawn) [Example 1, {(7S)-7-ethyl-9-isopropoxy-7-methyl-8-[4-(methylsulfonyl)phenyl]-1,4,6-trioxaspiro[4.4]non-8-en-2-yl}methanol], which solubility [1] is on record?
**A.** The solubility was under 1000 µg/mL.

**Q.** What about the solubility [1, 6] of the same compound?
**A.** The solubility was under 1000 µg/mL.

**Q.** And the “Pharmacokinetic characteristics” value [2]?
**A.** Its value is “superior pharmacokinetic characteristics”.

**Q.** What about the “In vivo conversion to parent drug in plasma” value [2] of the same compound?
**A.** Its value is “converted to yield appreciable levels of the parent drug”.

**Q.** And the concentration at 30 min ([2]; dosed in PEG-400 solution)?
**A.** The concentration at 30 min was 1400 nM.
